Test results published in US11124554B2, “Modified ligand-gated ion channels and methods of use” (Howard Hughes Medical Institute, priority 2016, dated 2021).
Read-outs that look alike come from different tables or passages of the source.

Assays:
α7^Q79G-5HT3 = target: T1, α7^Q79G-5HT3 (Homo sapiens, UniProt P36544, M226I/Q79G/T225I); experiment: Agonist potency (EC50), HEK cells expressing chimeric channel; format: cell-based, human α7 nAChR LBD, murine 5HT3 IPD; details: read-out: Mean EC50, α7^Q79G-5HT3
T1 construct: expressed in transfected cells; host or cells: HEK cells
T1 sequence (P36544 with tags, fused parts or gaps Q79G/T225I/M226I): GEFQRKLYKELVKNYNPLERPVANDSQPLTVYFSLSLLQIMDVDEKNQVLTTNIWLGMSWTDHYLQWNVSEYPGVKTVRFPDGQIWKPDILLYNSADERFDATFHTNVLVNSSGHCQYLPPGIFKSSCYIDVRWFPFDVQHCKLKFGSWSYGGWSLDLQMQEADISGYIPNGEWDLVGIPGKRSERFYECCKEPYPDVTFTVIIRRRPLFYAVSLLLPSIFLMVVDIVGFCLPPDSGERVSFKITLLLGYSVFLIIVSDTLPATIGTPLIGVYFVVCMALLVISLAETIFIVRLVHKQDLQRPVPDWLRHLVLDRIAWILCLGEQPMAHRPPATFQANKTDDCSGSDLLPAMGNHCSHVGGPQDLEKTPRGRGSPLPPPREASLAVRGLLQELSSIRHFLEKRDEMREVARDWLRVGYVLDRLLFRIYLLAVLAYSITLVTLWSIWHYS

α7-GlyR = target: T2, α7-GlyR (Homo sapiens, UniProt P36544); experiment: as above; format: cell-based
T2 construct: expressed in transfected cells; host or cells: HEK cells
T2 sequence (P36544 with tags, fused parts or gaps): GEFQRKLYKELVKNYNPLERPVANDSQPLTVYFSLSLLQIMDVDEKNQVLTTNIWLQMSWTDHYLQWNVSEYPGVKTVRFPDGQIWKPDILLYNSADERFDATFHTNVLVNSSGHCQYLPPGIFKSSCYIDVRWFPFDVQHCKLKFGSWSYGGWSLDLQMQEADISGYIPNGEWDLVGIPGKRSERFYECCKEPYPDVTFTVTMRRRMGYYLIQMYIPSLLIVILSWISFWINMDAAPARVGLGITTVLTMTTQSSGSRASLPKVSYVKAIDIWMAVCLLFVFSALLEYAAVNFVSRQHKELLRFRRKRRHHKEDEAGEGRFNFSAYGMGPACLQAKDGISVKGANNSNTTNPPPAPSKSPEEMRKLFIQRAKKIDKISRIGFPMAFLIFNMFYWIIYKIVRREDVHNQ

α7-GlyR^A298G = target: T3, α7-GlyR^A298G (Homo sapiens, UniProt P36544, A298G); experiment: as above; format: cell-based
T3 construct: expressed in transfected cells; host or cells: HEK cells
T3 sequence (P36544 with tags, fused parts or gaps, stated change not applied): as the sequence (P36544 with tags, fused parts or gaps) above, with A276G counted along it

α7^W77F,G175K-GlyR = target: T4, α7^W77F,G175K-GlyR (Homo sapiens, UniProt P36544, G175K/W77F); experiment: Agonist potency at chimeric channel; format: cell-based
T4 construct: expressed in transfected cells
T4 sequence (P36544 with tags, fused parts or gaps W77F/G175K): as the sequence (P36544 with tags, fused parts or gaps) above, with W55F, G153K counted along it

[1] = target: T5, α7GlyR W77F Q79G Y115F G175K (Homo sapiens, UniProt P36544, G175K/Q79G/W77F/Y115F); experiment: Agonist potency at chimeric channel; format: cell-based
T5 construct: expressed in transfected cells
T5 sequence (P36544 with tags, fused parts or gaps W77F/Q79G/Y115F/G175K): as the sequence (P36544 with tags, fused parts or gaps) above, with W55F, Q57G, Y93F, G153K counted along it

[2] = target: T6, α7GlyR Q79G Y115F G175K K322L (Homo sapiens, UniProt P36544, G175K/Q79G/Y115F); experiment: Agonist potency at chimeric channel; format: cell-based
T6 construct: expressed in transfected cells
T6 sequence (P36544 with tags, fused parts or gaps Q79G/Y115F/G175K): as the sequence (P36544 with tags, fused parts or gaps) above, with Q57G, Y93F, G153K, K300L counted along it

α7^Q79S,L131G,Q139L-GlyR = target: T7, α7^Q79S,L131G,Q139L-GlyR (Homo sapiens, UniProt P36544, L131G/Q139L/Q79S); experiment: cell-based; format: cell-based
T7 construct: expressed in transfected cells
T7 sequence (P36544 with tags, fused parts or gaps Q79S/L131G/Q139L): as the sequence (P36544 with tags, fused parts or gaps) above, with Q57S, L109G, Q117L counted along it

α7^L131F-GlyR = target: T8, α7^L131F-GlyR (Homo sapiens, UniProt P36544, L131F); experiment: Agonist potency at chimeric channel (Table 9); format: cell-based
T8 construct: expressed in transfected cells
T8 sequence (P36544 with tags, fused parts or gaps L131F): as the sequence (P36544 with tags, fused parts or gaps) above, with L109F counted along it

α7^L131G-GABAc = target: T9, α7^L131G-GABAc (Homo sapiens, UniProt P36544, L131G); experiment: Agonist potency at chimeric channel (Table 9); format: cell-based
T9 construct: expressed in transfected cells
T9 sequence (P36544 with tags, fused parts or gaps L131G): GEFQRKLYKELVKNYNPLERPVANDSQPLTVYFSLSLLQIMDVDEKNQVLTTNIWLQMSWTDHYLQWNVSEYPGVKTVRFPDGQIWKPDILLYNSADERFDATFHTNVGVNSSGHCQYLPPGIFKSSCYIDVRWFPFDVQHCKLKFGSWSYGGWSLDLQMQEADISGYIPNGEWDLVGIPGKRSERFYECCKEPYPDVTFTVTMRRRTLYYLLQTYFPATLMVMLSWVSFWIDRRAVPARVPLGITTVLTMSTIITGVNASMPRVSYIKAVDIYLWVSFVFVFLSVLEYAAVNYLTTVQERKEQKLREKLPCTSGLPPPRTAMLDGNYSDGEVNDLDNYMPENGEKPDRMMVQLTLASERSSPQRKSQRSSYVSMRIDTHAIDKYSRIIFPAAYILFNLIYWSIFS

α7GABAc (GABAA-ρ) W298A = target: T10, α7GABAc (GABAA-ρ) W298A (Homo sapiens, UniProt P36544, L141F/Q79G); experiment: Agonist potency at chimeric channel (Table 7); format: cell-based
T10 construct: expressed in transfected cells
T10 sequence (P36544 with tags, fused parts or gaps Q79G/L141F): as the sequence (P36544 with tags, fused parts or gaps L131G) above, with Q57G, G109L, L119F, W276A counted along it

α7GlyR Q79G L131G = target: T11, α7GlyR Q79G L131G (Homo sapiens, UniProt P36544, L131G/Q79G); experiment: Agonist potency at chimeric channel (Table 9); format: cell-based
T11 construct: expressed in transfected cells
T11 sequence (P36544 with tags, fused parts or gaps Q79G/L131G): as the sequence (P36544 with tags, fused parts or gaps) above, with Q57G, L109G counted along it

α7^Q79A-GlyR = target: T12, α7^Q79A-GlyR (Homo sapiens, UniProt P36544, Q79A); experiment: Agonist potency (EC50), HEK cells expressing chimeric channel; format: cell-based
T12 construct: expressed in transfected cells; host or cells: HEK cells
T12 sequence (P36544 with tags, fused parts or gaps Q79A): as the sequence (P36544 with tags, fused parts or gaps) above, with Q57A counted along it

α7^Q79G,Y115F-5HT3 = target: T13, α7^Q79G,Y115F-5HT3 (Homo sapiens, UniProt P36544, M226I/Q79G/T225I/Y115F); experiment: as above; format: cell-based, human α7 nAChR LBD, murine 5HT3 IPD; details: Table 4
T13 construct: expressed in transfected cells; host or cells: HEK cells
T13 sequence (P36544 with tags, fused parts or gaps Q79G/Y115F/T225I/M226I): as the sequence (P36544 with tags, fused parts or gaps Q79G/T225I/M226I) above, with Y93F counted along it

α7^Q79G,Q139G-5HT3 = target: T14, α7^Q79G,Q139G-5HT3 (Homo sapiens, UniProt P36544, M226I/Q139G/Q79G/T225I); experiment: as above; format: cell-based, human α7 nAChR LBD, murine 5HT3 IPD; details: Table 4
T14 construct: expressed in transfected cells; host or cells: HEK cells
T14 sequence (P36544 with tags, fused parts or gaps Q79G/Q139G/T225I/M226I): as the sequence (P36544 with tags, fused parts or gaps Q79G/T225I/M226I) above, with Q117G counted along it

α7^Q79G,Y115F-GlyR^A298G = target: T15, α7^Q79G,Y115F-GlyR^A298G (Homo sapiens, UniProt P36544, A298G/Q79G/Y115F); experiment: as above; format: cell-based; details: Table 4
T15 construct: expressed in transfected cells; host or cells: HEK cells
T15 sequence (P36544 with tags, fused parts or gaps Q79G/Y115F): as the sequence (P36544 with tags, fused parts or gaps) above, with Q57G, Y93F, A276G counted along it

[3] = target: T16, α7^R27D,E41R,Q79G,Y115F-GlyR^A298G (Homo sapiens, UniProt P36544, A298G/E41R/Q79G/R27D/Y115F); experiment: as above; format: cell-based; details: Table 4, read-out: Mean EC50, α7^R27D,E41R,Q79G,115F-GlyR^A298G
T16 construct: expressed in transfected cells; host or cells: HEK cells
T16 sequence (P36544 with tags, fused parts or gaps R27D/E41R/Q79G/Y115F): as the sequence (P36544 with tags, fused parts or gaps) above, with R5D, E19R, Q57G, Y93F, A276G counted along it

[4] = target: T17, α7GlyR Q79G G175K Y115F R27D E41R (Homo sapiens, UniProt P36544, E41R/G175K/Q79G/R27D/Y115F); experiment: Agonist potency at chimeric channel; format: cell-based
T17 construct: expressed in transfected cells
T17 sequence (P36544 with tags, fused parts or gaps R27D/E41R/Q79G/Y115F/G175K): as the sequence (P36544 with tags, fused parts or gaps) above, with R5D, E19R, Q57G, Y93F, G153K counted along it

[5] = target: T18, α7^L131G,Q139L,Y217F-GlyR (Homo sapiens, UniProt P36544, L131G/Q139L/Y217F); experiment: cell-based; format: cell-based
T18 construct: expressed in transfected cells
T18 sequence (P36544 with tags, fused parts or gaps L131G/Q139L/Y217F): as the sequence (P36544 with tags, fused parts or gaps) above, with L109G, Q117L, Y195F counted along it

[6] = target: T19, α7^L131G,Q139L,Y217F-5HT3 HC (Homo sapiens, UniProt P36544, L131G/M226I/Q139L/T225I/Y217F); experiment: Agonist potency at chimeric channel (Table 9); format: cell-based; details: α75HT3 L131G Q139L Y217F HC
T19 construct: expressed in transfected cells
T19 sequence (P36544 with tags, fused parts or gaps L131G/Q139L/Y217F/T225I/M226I limits assumed): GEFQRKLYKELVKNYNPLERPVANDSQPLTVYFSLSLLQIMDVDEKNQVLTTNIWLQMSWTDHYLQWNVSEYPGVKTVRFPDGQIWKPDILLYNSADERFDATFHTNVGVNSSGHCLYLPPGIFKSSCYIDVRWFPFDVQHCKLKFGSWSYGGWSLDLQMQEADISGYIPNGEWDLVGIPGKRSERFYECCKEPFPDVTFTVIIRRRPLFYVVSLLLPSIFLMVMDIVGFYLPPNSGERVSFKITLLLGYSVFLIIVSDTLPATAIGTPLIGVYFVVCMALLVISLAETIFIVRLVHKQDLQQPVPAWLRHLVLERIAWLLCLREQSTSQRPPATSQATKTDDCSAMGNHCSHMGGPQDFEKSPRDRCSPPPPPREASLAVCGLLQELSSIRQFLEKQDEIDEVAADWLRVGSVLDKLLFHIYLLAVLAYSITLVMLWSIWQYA

α7^R27D,E41R-5HT3 = target: T20, α7^R27D,E41R-5HT3 (Homo sapiens, UniProt P36544, E41R/M226I/R27D/T225I); experiment: Whole cell recordings in HEK cells; format: cell-based, human α7 nAChR LBD, murine 5HT3 IPD; details: V5 epitope tag
T20 construct: expressed in transfected cells; host or cells: HEK cells
T20 sequence (P36544 with tags, fused parts or gaps R27D/E41R/T225I/M226I limits assumed): as the sequence (P36544 with tags, fused parts or gaps Q79G/T225I/M226I) above, with R5D, E19R, G57Q counted along it

[7] = target: T21, α7GlyR Q79S L131G Q139L Y217F (Homo sapiens, UniProt P36544, L131G/Q139L/Q79S/Y217F); experiment: cell-based
T21 construct: expressed in transfected cells
T21 sequence (P36544 with tags, fused parts or gaps Q79S/L131G/Q139L/Y217F): as the sequence (P36544 with tags, fused parts or gaps) above, with Q57S, L109G, Q117L, Y195F counted along it

[8] = read-out: Agonist potency, a7GlyR

SMILES	EC50 (α7-GlyR) [nM]	EC50 (α7-GlyR; read-out: Agonist potency) [nM]	EC50 (α7-GlyR; [8]) [nM]	EC50 (α7-GlyR^A298G) [nM]	EC50 (α7^W77F,G175K-GlyR) [nM]	EC50 [1] [nM]	EC50 [2] [nM]	EC50 (α7^Q79S,L131G,Q139L-GlyR) [nM]	EC50 (α7^L131F-GlyR) [nM]	EC50 (α7GABAc (GABAA-ρ) W298A) [nM]	EC50 (α7GlyR Q79G L131G) [nM]	EC50 (α7^Q79A-GlyR) [nM]	EC50 [4] [nM]	EC50 [5] [nM]	EC50 [7] [nM]	other results
O=c1cccc2n1C[C@@H]1CNC[C@H]2C1 [Cytisine]	6400	6400	6400	2100	1500	4020	> 30000	10000	10500	13300	> 30000					EC50 (α7^Q79G-5HT3): 1700 nM; EC50 (α7^L131G-GABAc): > 500000 nM
O=C(NC1CN2CCC1CC2)c1ccc(Cl)cc1 (stereo not shown) [PNU-282987]	130	130	130	35		> 1000			200		96	22	50	160	50	EC50 (α7-GlyR; read-out: α7-GlyR EC50): 130 nM; EC50 (α7^Q79G,Y115F-5HT3): 350 nM; EC50 (α7^Q79G,Q139G-5HT3): 160 nM; EC50 (α7^Q79G,Y115F-GlyR^A298G): 220 nM; EC50 [3]: 66 nM; EC50 [6]: 15 nM; whole cell response (α7^R27D,E41R-5HT3): potent responses
Clc1ccc(C2CC3CCC2N3)cn1 (stereo not shown) [Epibatidine]					40		270	12		420		38	59	21	22	EC50 (α7^Q79G-5HT3; HEK cells, Table 1): 50 nM
